Data as given in PubChem BioAssay AID2060499 (Molecular Pharmacology Branch, DTP, NCI, 2025).

System: 777334-354-R2-J4-PDC tumor spheroids with HUVEC/MSC, viability
Assay: Anticancer human tumor 777334-354-R2-J4-PDC patient-derived pancreatic adenocarcinoma cell line growth inhibition [GQUAD]
Settings: for IC50: curve of first compound; for viability, T/C: stronger effect = lower value; active = viability on the fitted dose curve at most 10% of control; inactive = the rest
In short: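 Viability of tumor cells grown as complex spheroids with endothelial and stromal cells, exposed to drug combinations. Top concentration at or near clinical Cmax (else 10 microM), diluted in half-log increments.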

[1] = second compound 0.0316 µM, first compound 0.0316 µM
[2] = second compound 0.0316 µM, first compound 0.1 µM
[3] = second compound 0.0316 µM, first compound 0.316 µM
[4] = second compound 0.0316 µM, first compound 1 µM
[5] = second compound 0.0316 µM, first compound 3.16 µM
[6] = second compound 0.0316 µM, first compound 10 µM
[7] = second compound 0.1 µM, first compound 0.0316 µM
[8] = second compound 0.1 µM, first compound 0.1 µM
[9] = second compound 0.1 µM, first compound 0.316 µM
[10] = second compound 0.1 µM, first compound 1 µM
[11] = second compound 0.1 µM, first compound 3.16 µM
[12] = second compound 0.1 µM, first compound 10 µM
[13] = second compound 0.316 µM, first compound 0.0316 µM
[14] = second compound 0.316 µM, first compound 0.1 µM
[15] = second compound 0.316 µM, first compound 0.316 µM
[16] = second compound 0.316 µM, first compound 1 µM
[17] = second compound 0.316 µM, first compound 3.16 µM
[18] = second compound 0.316 µM, first compound 10 µM
[19] = second compound 1 µM, first compound 0.0316 µM
[20] = second compound 1 µM, first compound 0.1 µM
[21] = second compound 1 µM, first compound 0.316 µM
[22] = second compound 1 µM, first compound 1 µM
[23] = second compound 1 µM, first compound 3.16 µM
[24] = second compound 1 µM, first compound 10 µM
[25] = second compound 3.16 µM, first compound 0.0316 µM
[26] = second compound 3.16 µM, first compound 0.1 µM
[27] = second compound 3.16 µM, first compound 0.316 µM
[28] = second compound 3.16 µM, first compound 1 µM
[29] = second compound 3.16 µM, first compound 3.16 µM
[30] = second compound 3.16 µM, first compound 10 µM
[31] = second compound 10 µM, first compound 0.0316 µM
[32] = second compound 10 µM, first compound 0.1 µM
[33] = second compound 10 µM, first compound 0.316 µM
[34] = second compound 10 µM, first compound 1 µM
[35] = second compound 10 µM, first compound 3.16 µM
[36] = second compound 10 µM, first compound 10 µM
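Note: spheroids exposed to compounds for 7 days before readout.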

C=CC(=O)N1CCN(c2nc(=O)n(-c3c(C)ccnc3C(C)C)c3nc(-c4c(O)cccc4F)c(F)cc23)C(C)C1 (stereo unspecified) + Cc1cnc(CNC(=O)c2c(=O)c3ccc(N4CCCN(C)CC4)nc3n3c2sc2ccccc23)cn1
> 10 µM: IC50 (second compound 0.0316 µM) | IC50 (second compound 0.1 µM) | IC50 (second compound 0.316 µM) | IC50 (second compound 1 µM) | IC50 (second compound 3.16 µM) | IC50 (second compound 10 µM)
inactive: viability, T/C [1] 106% | viability, T/C [2] 75.7% | viability, T/C [3] 96.2% | viability, T/C [4] 106% | viability, T/C [5] 110% | viability, T/C [6] 97.2% | viability, T/C [7] 95.3% | viability, T/C [8] 79.4% | viability, T/C [9] 90.2% | viability, T/C [10] 89.9% | viability, T/C [11] 109% | viability, T/C [12] 81.2% | viability, T/C [13] 81.2% | viability, T/C [14] 91.3% | viability, T/C [15] 87.7% | viability, T/C [16] 104% | viability, T/C [17] 90.7% | viability, T/C [18] 76.3% | viability, T/C [19] 73.7% | viability, T/C [20] 74.1% | viability, T/C [21] 69.9% | viability, T/C [22] 81.4% | viability, T/C [23] 82.9% | viability, T/C [24] 71.5% | viability, T/C [25] 61.8% | viability, T/C [26] 60.8% | viability, T/C [27] 62.5% | viability, T/C [28] 66.8% | viability, T/C [29] 76.9% | viability, T/C [30] 55.3% | viability, T/C [31] 56.6% | viability, T/C [32] 55.3% | viability, T/C [33] 58.6% | viability, T/C [34] 70% | viability, T/C [35] 64.5% | viability, T/C [36] 49.9%

CCCS(=O)(=O)Nc1ccc(F)c(C(=O)c2c[nH]c3ncc(-c4ccc(Cl)cc4)cc23)c1F + Cc1cnc(CNC(=O)c2c(=O)c3ccc(N4CCCN(C)CC4)nc3n3c2sc2ccccc23)cn1
6.93 µM: IC50 (second compound 0.1 µM)
inactive: viability, T/C [1] 99.3% | viability, T/C [2] 89.1% | viability, T/C [3] 105% | viability, T/C [4] 94.3% | viability, T/C [5] 106% | viability, T/C [6] 30% | viability, T/C [7] 83.5% | viability, T/C [8] 88.7% | viability, T/C [9] 104% | viability, T/C [10] 95.5% | viability, T/C [11] 88% | viability, T/C [12] 32.1% | viability, T/C [13] 88.7% | viability, T/C [14] 91.7% | viability, T/C [15] 69% | viability, T/C [16] 92.6% | viability, T/C [17] 93.3% | viability, T/C [18] 30.7% | viability, T/C [19] 68.8% | viability, T/C [20] 77.6% | viability, T/C [21] 78.5% | viability, T/C [22] 71.2% | viability, T/C [23] 74.9% | viability, T/C [24] 40.2% | viability, T/C [25] 59% | viability, T/C [26] 61.1% | viability, T/C [27] 68.9% | viability, T/C [28] 71.2% | viability, T/C [29] 72% | viability, T/C [30] 43.1% | viability, T/C [31] 52.7% | viability, T/C [32] 48.6% | viability, T/C [33] 68.2% | viability, T/C [34] 68.4% | viability, T/C [35] 65.2%
7.16 µM: IC50 (second compound 0.0316 µM) | IC50 (second compound 1 µM)
active: viability, T/C [36] 0.24%
6.74 µM: IC50 (second compound 0.316 µM)
> 10 µM: IC50 (second compound 3.16 µM)
3.87 µM: IC50 (second compound 10 µM)

CC1COCCN1c1cc(-c2ccnn2C)c2ccnc(-c3ccn[nH]3)c2n1 (stereo unspecified) + CN(C)c1ccc(Nc2c3ccc(NC(=O)CCN4CCCC4)cc3nc3cc(NC(=O)CCN4CCCC4)ccc23)cc1
inactive: viability, T/C [1] 103% | viability, T/C [2] 84.2% | viability, T/C [3] 61.7% | viability, T/C [4] 53.9% | viability, T/C [5] 44.4% | viability, T/C [6] 29% | viability, T/C [7] 106% | viability, T/C [8] 77% | viability, T/C [9] 66% | viability, T/C [10] 53.5% | viability, T/C [11] 40.1% | viability, T/C [12] 30.6% | viability, T/C [13] 93.9% | viability, T/C [14] 78% | viability, T/C [15] 59.4% | viability, T/C [16] 46.6% | viability, T/C [17] 38.4% | viability, T/C [18] 27.5% | viability, T/C [19] 90.8% | viability, T/C [20] 77.1% | viability, T/C [21] 51.7% | viability, T/C [22] 48.2% | viability, T/C [23] 37.2% | viability, T/C [24] 27.2% | viability, T/C [25] 87.4% | viability, T/C [26] 65.2% | viability, T/C [27] 53.9% | viability, T/C [28] 46.9% | viability, T/C [29] 38.5% | viability, T/C [30] 22.4% | viability, T/C [31] 77.2% | viability, T/C [32] 66.6% | viability, T/C [33] 57.1% | viability, T/C [34] 42.1% | viability, T/C [35] 32.4% | viability, T/C [36] 17.7%
0.59 µM: IC50 (second compound 3.16 µM)
0.555 µM: IC50 (second compound 10 µM)
1.27 µM: IC50 (second compound 0.0316 µM)
0.654 µM: IC50 (second compound 1 µM)
1.06 µM: IC50 (second compound 0.1 µM)
0.789 µM: IC50 (second compound 0.316 µM)
